Experimental findings from US10076519B2 (CYTOKINETICS, INC., priority 2010, dated 2018) are described below.

One test concerns rabbit skeletal myofibrils (fast skeletal myofibrils). Briefly: Activation of fast skeletal myofibrils (PUMA assay, PK/LDH-coupled ATPase at pCa25). It counts as biochemical. The following applies: AC1.4 determined according to the procedure of Example 39; reported as class symbols. Put shortly:
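Detergent-washed rabbit psoas myofibrils (~90% fast fibres, calcium-regulated) assayed at calcium giving 25% of maximal ATPase rate (pCa25). ADP turnover coupled via pyruvate kinase/lactate dehydrogenase to NADH oxidation, read at 340 nm. Buffer 12 mM PIPES, 2 mM MgCl2, 1 mM DTT, pH 6.8; AC1.4 values derived.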
As for `CNC(=O)c1cccc(-c2ccc(NCC(C)(C)c3ccc(F)cc3)nn2)c1` [[3-(6-{[2-(4-fluorophenyl)-2-methylpropyl]amino}pyridazin-3-yl)phenyl]-N-methylcarboxamide], the “Mean AC1.4” value is listed as “B (B=1-10 uM)”. For `Nc1ccc(-c2ccc(NCC3(c4ncccc4F)CCC3)nn2)cc1F` [[6-(4-amino-3-fluorophenyl)pyridazin-3-yl]{[(3-fluoro(2-pyridyl))cyclobutyl]meth-yl}amine], the “Mean AC1.4” value is “A (A=<1 uM)”.

Take `Oc1cccc(C2(CNc3ccc(-c4ccc5cn[nH]c5c4)nn3)CCC2)n1` [6-({[(6-(1H-indazol-6-yl)pyridazin-3-yl)amino]methyl}cyclobutyl) pyridin-2-ol]: the “Mean AC1.4” value is recorded as “D (D=>20 uM)”. Still for that read-out and setting: with `NC(=O)c1ccc(-c2ccc(NCC3(c4ncccc4F)CCC3)nn2)cc1` the entry was “B (B=1-10 uM)”; with `CS(=O)(=O)N(CC1(c2ncccc2F)CNC1)c1ccc(-c2ccc3[nH]ncc3c2)nn1` [(6-(1H-indazol-5-yl)pyridazin-3-yl){[3-(3-fluoro(2-pyridyl))azetidin-3-yl]methyl}(methylsulfonyl)amine], “D (D=>20 uM)”; with `CC(C)(CNc1ccc(-c2cccc(C(N)=O)c2)nn1)c1ncccc1F` [3-(6-{[2-(3-fluoro(2-pyridyl))-2-methylpropyl]amino}pyridazin-3-yl)benzamide], “B (B=1-10 uM)”. For `N#Cc1ccnc(C2(CNc3ccc(-c4cccc(C(N)=O)c4)nn3)CCC2)c1`, the “Mean AC1.4” value was “B (B=1-10 uM)”.

Turning to `Nc1ccc(-c2ccc(NCC3(c4ncccc4F)CCC3)nn2)cc1` [[6-(4-aminophenyl)pyridazin-3-yl]{[(3-fluoro(2-pyridyl))cyclobutyl]methyl}amine], the “Mean AC1.4” value was “A (A=<1 uM)”.

With `NC(=O)c1cccc(-c2ccc(NCC3(c4cnccn4)CCC3)nn2)c1`, the “Mean AC1.4” value is “D (D=>20 uM)”.

Still in this test, the particulars now being: median AC1.4 class, procedure of Example 39.
Consider `N#Cc1cncc(-c2ccc(NCC3(c4ncccc4F)CCC3)nn2)n1` [6-[6-({[(3-fluoro-2-pyridyl)cyclobutyl]methyl}ami-no)pyridazin-3-yl]pyrazine-2-carbonitrile], for which the “Mean AC1.4” value is on record as “B (B=1-10 uM)”. The same measure, in the same setting: for `NCc1ccccc1-c1ccc(NCC2(c3ncccc3F)CCC2)nn1` [{6-[2-(aminomethyl)phenyl]pyridazin-3-yl}{[(3-fluoro(2-pyridyl))cyclobutyl]methyl}amine] the value was “D (D=>20 uM)”; for `Cn1cc(-c2ccc(NCC3(c4ncccc4F)CCC3)nn2)nc1C(N)=O`, “D (D=>20 uM)”. For the molecule `NCCn1nnc(-c2ccc(NCC3(c4ncccc4F)CCC3)nn2)n1` [{6-[2-(2-aminoethyl)(1,2,3,4-tetraazol-5-yl)]pyridazin-3-yl}{[(3-fluoro(2-pyridyl))cyclobutyl]methyl}amine], the “Mean AC1.4” value is “D (D=>20 uM)”. Turning to `CC(OC(=O)NC(C)(C)C(=O)NCc1cnc(-c2ccc(NCC3(c4ncccc4F)CCC3)nn2)s1)OC(=O)C(C)C` (stereo not shown) [(N-{1-[N-({2-[6-({[(3-fluoro(2-pyridyl))cyclobutyl]methyl}ami-no)pyridazin-3-yl](1,3-thiazol-5-yl)}methyl)carbamoyl]-isopropyl}carbamoyloxy)ethyl 2-methylpropanoate], the “Mean AC1.4” value is “A (A=<1 uM)”. Regarding `N#Cc1cccc(C2(Nc3ccc(-c4cc(C(N)=O)ccc4F)nn3)CCC2)n1`, the “Mean AC1.4” value is “B (B=1-10 uM)”. Consider `Fc1cccnc1C1(CNc2ccc(C3CCCCC3)nn2)CCC1` [(6-cyclohexylpyridazin-3-yl){[(3-fluoro(2-pyridyl))cyclobutyl]methyl}amine], for which the “Mean AC1.4” value is “B (B=1-10 uM)”. Consider `Fc1cccnc1C1(CNc2ccc(-c3nccs3)nn2)CCC1` [{[(3-fluoro(2-pyridyl))cyclobutyl]methyl}(6-(1,3-thiazol-2-yl)pyridazin-3-yl)amine], for which the “Mean AC1.4” value is listed as “B (B=1-10 uM)”. As for `CC(=O)Nc1nccc(-c2ccc(NCC3(c4ncccc4F)CCC3)nn2)n1` [N-{4-[6-({[(3-fluoro-2-pyridyl)cyclobutyl]methyl}ami-no)pyridazin-3-yl]pyrimidin-2-yl}acetamide], the “Mean AC1.4” value is listed as “C (C=10-20 uM)”.

`CC(C)NC(=O)c1cnc(-c2ccc(NCC3(c4ncccc4F)CCC3)nn2)s1` [{2-[6-({[(3-fluoro(2-pyridyl))cyclobutyl]methyl}ami-no)pyridazin-3-yl](1,3-thiazol-5-yl)}-N-(methylethyl)carboxamide]: the “Mean AC1.4” value is given as “B (B=1-10 uM)”. With `O=c1[nH]nc(-c2ccc(-c3ccc(NCC4(c5ncccc5F)CCC4)nn3)s2)[nH]1` [3-{5-[6-({[(3-fluoro-2-pyridyl)cyclobutyl]methyl}ami-no)pyridazin-3-yl]-2-thienyl}-1,2,4-triazolin-5-one], the “Mean AC1.4” value is recorded as “A (A=<1 uM)”. Take `CC(=O)N1CC(c2ccc(NCC3(c4ncccc4F)CCC3)nn2)C1`: the “Mean AC1.4” value is “D (D=>20 uM)”. Turning to `CC(C)(Nc1ccc(-c2cc(C(N)=O)ccc2F)nn1)c1cccc(OC(F)F)n1` [3-[6-({1-[6-(difluoromethoxy)(2-pyridyl)]-isopropyl}amino)pyridazin-3-yl]-4-fluorobenzamide], the “Mean AC1.4” value is given as “A (A=<1 uM)”. The same measure, in the same setting: for `O=C(c1cnc(-c2ccc(NCC3(c4ncccc4F)CCC3)nn2)s1)N1CCC(O)CC1` [2-[6-({[(3-fluoro(2-pyridyl))cyclobutyl]methyl}ami-no)pyridazin-3-yl](1,3-thiazol-5-yl) 4-hydroxypiperidyl ketone] the value was “C (C=10-20 uM)”; for `O=C(NCc1cnc(-c2ccc(NCC3(c4ncccc4F)CCC3)nn2)s1)C1(NCc2ccccc2)COC1` [N-({2-[6-({[(3-fluoro(2-pyridyl))cyclobutyl]methyl}ami-no)pyridazin-3-yl](1,3-thiazol-5-yl)}methyl){3-[benzylamino]oxetan-3-yl}carboxamide], “A (A=<1 uM)”; for `CC(=O)Nc1ccc(-c2ccc(NCC3(c4ncccc4F)CCC3)nn2)cc1`, “A (A=<1 uM)”.

Turning to `Fc1cccnc1C1(CNc2ccc(-c3ncccn3)nn2)CCC1` [{[(3-fluoro(2-pyridyl))cyclobutyl]methyl}(6-pyrimidin-2-ylpyridazin-3-yl)amine], the “Mean AC1.4” value was “B (B=1-10 uM)”.

The test is the same for the next values; noted with them: median AC1.4 reported as class; procedure of Example 39.
In the case of `NC(=O)c1cccc(-c2ccc(NCC3(c4ncccc4F)CCC3)nn2)c1O` [3-[6-({[(3-fluoro(2-pyridyl))cyclobutyl]methyl}ami-no)pyridazin-3-yl]-2-hydroxybenzamide], the “Mean AC1.4” value is “A (A=<1 uM)”. Consider `NC(=O)CCc1cnc(-c2ccc(NCC3(c4ncccc4F)CCC3)nn2)s1` [3-{2-[6-({[(3-fluoro-2-pyridyl)cyclobutyl]methyl}ami-no)pyridazin-3-yl]-1,3-thiazol-5-yl}propanamide], for which the “Mean AC1.4” value is “B (B=1-10 uM)”. For the molecule `CNC(=O)Cc1cnc(-c2ccc(NCC3(c4ncccc4Cl)CCC3)nn2)s1` [2-{2-[6-({[(3-chloro(2-pyridyl))cyclobutyl]methyl}ami-no)pyridazin-3-yl](1,3-thiazol-5-yl)}-N-methylacetamide], the “Mean AC1.4” value is given as “A (A=<1 uM)”. As for `O=C(Nc1ccon1)c1ccc(NCC2(c3ncccc3F)CCC2)nn1` [[6-({[(3-fluoro(2-pyridyl))cyclobutyl]methyl}ami-no)pyridazin-3-yl]-N-isoxazol-3-ylcarboxamide], the “Mean AC1.4” value is on record as “B (B=1-10 uM)”.

Regarding `CNc1ccc(-c2ccc(NC[C@]3(c4ncccc4F)C[C@H](F)C3)nn2)cn1` [{[3-fluoro-1-(3-fluoro(2-pyridyl))cyclobutyl]methyl}{6-[6-(methylamino)(3-pyridyl)]pyridazin-3-yl}amine], the “Mean AC1.4” value is listed as “B (B=1-10 uM)”.
